Where “and” joins values, the source holds several entries; their conditions need not be identical. Equal entries are not always repeated. Where two headings read alike, the source gives them in different places.
Assays:
[1] = test system: PC-3; experiment: Cell growth inhibition, resazurin, 48 h
[2] = test system: 20S proteasome chymotrypsin-like activity in RPMI 8226 cells; experiment: Chymotrypsin-like activity of 20S proteasomes in treated cells; assay type: cell-based, human; conditions: 1 hr, mean ± SD, n = 3
Protocol: RPMI 8226 (ATCC, CCL-155), the human multiple myeloma cell line, was cultured in RPMI 1640 medium supplemented with 2 mM L-glutamine, 100 units/ml penicillin, 100 μg/ml streptomycin, 1 mM sodium pyruvate and 10% heat inactivated fetal bovine serum at 37° C., 5% CO2 and 95% humidified air. […] DMSO was used as the vehicle control at a final concentration of 0.1%. Following 1 hr incubation of RMPI 8226 cells with the compounds, the cells were pelleted by centrifugation at 2,000 rpm for 10 sec at room temperature and washed 3× with ice-cold 1×Dulbecco's Phosphate-Buffered Saline (DPBS, Mediatech, Herndon, Va.). DPBS washed cells were lysed on ice for 15 min in lysis buffer (20 mM HEPES, 0.5 mM EDTA, 0.05% Triton X-100, pH 7.3) supplemented with protease inhibitor cocktail (Roche Diagnostics, Indianapolis, Ind.). Cell debris was pelleted by centrifugation at 14,000 rpm for 10 min, 4° C. and supernatants (=cell lysates) were transferred to a new tube. Protein concentration was determined by the BCA protein assay kit (Pierce Biotechnology, Rockford, Ill.). […] The total amount of protein used for each assay was 20 μg. The final concentration of Suc-LLVY-AMC and DMSO was 20 μM and 0.2%, respectively.

[3] = target: T1, trypsin-like activity of rabbit muscle 20S proteasome (Oryctolagus cuniculus, UniProt G1SWK8); experiment: In vitro inhibition of 20S proteasome, Boc-LRR-AMC; assay type: biochemical; conditions: for inhibition of the trypsin-like activity of the 20S proteasome: under the conditions tested; for EC50: purified rabbit 20S proteasome, Boc-LRR-AMC
T1 construct: EC50 Trypsin-like; other: purified rabbit 20S proteasome, Boc-LRR-AMC; other: under the conditions tested
T1 sequence (G1SWK8 1-271): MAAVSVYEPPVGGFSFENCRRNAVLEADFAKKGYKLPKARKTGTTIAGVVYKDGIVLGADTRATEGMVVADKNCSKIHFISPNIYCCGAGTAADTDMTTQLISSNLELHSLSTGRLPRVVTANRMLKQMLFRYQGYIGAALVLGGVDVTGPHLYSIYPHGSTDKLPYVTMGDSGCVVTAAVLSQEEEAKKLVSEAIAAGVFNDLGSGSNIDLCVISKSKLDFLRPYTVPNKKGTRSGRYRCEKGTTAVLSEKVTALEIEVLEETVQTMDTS

[4] = test system: NF-κB-mediated luciferase activity in HEK293 NF-κB/Luc cells; experiment: NF-κB-mediated luciferase reporter gene assay; assay type: cell-based, human; conditions: for EC50: 6 h TNF-α stimulation; for luciferase activity upon TNF-α stimulation: pretreatment of NF-κB/Luc 293 cells
Protocol: The HEK293 NF-κB/luciferase reporter cell line is a derivative of the human embryonic kidney cell line (ATCC; CRL-1573) and carries a luciferase reporter gene under the regulation of 5×NF-κB binding sites. […] When performing the luciferase assay, the DMEM basal medium was replaced with phenol-red free DMEM basal medium and the G418 was omitted.
For NF-κB-mediated luciferase assays, HEK293 NF-κB/luciferase cells were seeded at 1.5×10^4 cells/well in 90 μl phenol-red free DMEM complete medium into Corning 3917 white opaque-bottom tissue culture plates. For Formulae II-2, II-4, II-5A and II-18, a 400 μM starting dilution was made in 100% DMSO and this dilution was used to generate an 8-point half log dilution series. […] For formula II-20, a 2.5 mM or 8 mM starting dilution was made in 100% DMSO and the final test concentrations ranged from 6.3 μM to 2.0 nM or 20 μM to 6.3 nM respectively. The plates were returned to the incubator for 1 hour. After 1 hr pretreatment, 10 μl of a 50 ng/ml TNF-α solution, prepared in the phenol-red free DMEM medium was added, and the plates were incubated for an additional 6 hours.
At the end of the TNF-α stimulation, 100 μl of Steady Lite HTS luciferase reagent (Packard Bioscience) was added to each well and the plates were left undisturbed for 10 min at room temperature before measuring the luciferase activity. The relative luciferase units (RLU) were measured by using a Fusion microplate fluorometer (Packard Bioscience).
NF-κB inducible luciferase activity was measured at 6 hours.

[5] = test system: MDA-MB-231; experiment: Cell growth inhibition, resazurin, 48 h; assay type: cell-based, human; conditions: MDA-MB-231, 48 h drug exposure
[6] = test system: OVCAR-3; experiment: Cell growth inhibition, resazurin, 48 h; assay type: cell-based, human; conditions: OVCAR-3, 48 h drug exposure
[7] = test system: HT-29; experiment: Cell growth inhibition, resazurin, 48 h; assay type: cell-based, human; conditions: HT-29, 48 h drug exposure
Protocol: RPMI 8226 (CCL-155), HT-29 (HTB-38), and B16-F10 (CRL-6475) cells were purchased from ATCC. RPMI 8226 cells were maintained in RPMI 1640 media supplemented with 10% (v/v) FBS, 2 mM L-glutamine, 1 mM sodium pyruvate and Penicillin/Streptomycin at 100 IU/ml and 100 μg/ml, respectively. HT-29 cells were maintained in McCoys 5A supplemented with 10% (v/v) FBS, 2 mM L-glutamine, 1 mM sodium pyruvate, 1% (v/v) non-essential amino acids, 10 mM HEPES and Penicillin/Streptomycin at 100 IU/ml and 100 μg/ml, respectively. B16-F10 cells were maintained in DMEM supplemented with 10% (v/v) FBS, 2 mM L-glutamine, 10 mM HEPES and Penicillin/Streptomycin at 100 IU/ml and 100 μg/ml, respectively.
RPMI 8226 cells were seeded at 2×10^4 cells/well in 90 μl RPMI media containing 10% (v/v) FBS or 1% (v/v) FBS into 96 well black-walled, clear-bottom tissue culture plates. […] Formulae II-16, II-17 and Formula II-18 were serially diluted in media containing 1% or 10% FBS and added in triplicate to the test wells. […] The final concentration of Formula II-18 ranged from 2 μM to 630 pM.

[8] = Homo sapiens, HEK293, 1 h pretreatment, read-out: EC50

SMILES | % inhibition of the chymotrypsin-like activity of 20S proteasomes in RPMI 8226 cell lysates ([2]; 1 nM) [%] | % inhibition of the chymotrypsin-like activity of 20S proteasomes in RPMI 8226 cell lysates ([2]; 5 nM) [%] | % inhibition of the chymotrypsin-like activity of 20S proteasomes in RPMI 8226 cell lysates ([2]; 10 nM) [%] | % inhibition of the chymotrypsin-like activity of 20S proteasomes in RPMI 8226 cell lysates ([2]; 50 nM) [%] | % inhibition of the chymotrypsin-like activity of 20S proteasomes in RPMI 8226 cell lysates ([2]; 100 nM) [%] | inhibition of the trypsin-like activity of the 20S proteasome [3] | EC50 [4, 8] [nM] | luciferase activity upon TNF-α stimulation [4] | % inhibition of the chymotrypsin-like activity of 20S proteasomes in RPMI 8226 cell lysates ([2]; 500 nM) [%] | % inhibition of the chymotrypsin-like activity of 20S proteasomes in RPMI 8226 cell lysates ([2]; 1,000 nM) [%] | % inhibition of the chymotrypsin-like activity of 20S proteasomes in RPMI 8226 cell lysates ([2]; 10,000 nM) [%] | further results
C[C@@]12OC(=O)[C@]1([C@@H](O)[C@@H]1C=CCCC1)NC(=O)[C@@H]2CCCl [Formula II-16, Salinosporamide A] | 30 ± 7 | 85±7 | 94 ± 3 | 97 ± 0 | 98 ± 1 | able to inhibit the trypsin-like activity | ~7 | dose-dependent decrease of luciferase activity | – | – | – | % cytotoxicity ([1]; PC-3): 88% and 89%; EC50 ([1]; PC-3, 48 h drug exposure): 64 ± 26 nM; EC50 ([5]; Homo sapiens, MDA-MB-231, 48 h): 67 nM; EC50 [5]: 87 ± 40 nM; EC50 ([6]; Homo sapiens, OVCAR-3, 48 h): 69 nM; EC50 [6]: 49 ± 31 nM; EC50 [7]: 40 ± 26 nM; EC50 ([7]; Homo sapiens, HT-29, 48 h): 47 nM
CC[C@H]1C(=O)N[C@@]2([C@@H](O)[C@@H]3C=CCCC3)C(=O)O[C@@]12C [Formula II-17] | 6 ± 6 | 10 ± 5 | 6 ± 6 | 26 ± 5 | 30±4 | able to inhibit the trypsin-like activity | 960 ± 210 | – | 39 ± 3 | 46 ± 4 | 65 ± 5 | EC50 ([1]; Homo sapiens, PC-3, 48 h): > 20000 nM; EC50 ([5]; Homo sapiens, read-out: EC50): 5900 ± 601 nM; EC50 ([6]; Homo sapiens, read-out: EC50): > 20000 nM; EC50 ([7]; Homo sapiens, read-out: EC50): > 20000 nM
C[C@H]1C(=O)N[C@@]2([C@@H](O)[C@@H]3C=CCCC3)C(=O)O[C@@]12C [Formula II-20] | 3 ± 10 | 31 ± 9 | 37 ± 3 | 64 ± 3 | 66±3 | able to inhibit the trypsin-like activity | – | dose-dependent decrease of luciferase activity | 71 ± 2 | 73 ± 2 | 87 ± 4 | EC50 [3]: 321 nM; EC50 ([3]; listed as II-20): 321 nM; EC50 ([4]; 1 h pretreatment): 849 ± 225 nM

Source: patent US7572606B1 (Nereus Pharmaceuticals, Inc., priority 2005, dated 2009)
